Square brackets hold non-standard residues; d marks the D form. Ends that are not written are not given here. Peptide text beside a SMILES is read from it. * marks the point of attachment. pY = N[C@@H](Cc1ccc(OP(=O)(O)O)cc1)C(=O)O; Myristoyl = CCCCCCCCCCCCCC(=O)*; pS = N[C@@H](COP(=O)(O)O)C(=O)O
Legend:
GSK-3β = GSK-3β (Oryctolagus cuniculus, UniProt A0A5F9DUX8); assay: In vitro GSK-3 inhibition assay (phosphorylation of PGS-1 peptide substrate); type: biochemical, rabbit; conditions: for Inhibitor functionality: GSK-3 inhibitor; for GSK-3 inhibition (in words): in vitro, cpL803-mts tested at 0-300 μM
Method: In vitro inhibition assays: Purified recombinant rabbit GSK-3β (Eldar-Finkelman et al., 1996) was incubated with peptide substrate PGS-1 ([…](p)EDEEE) (SEQ ID NO:15) and with a peptide inhibitor at indicated concentrations. The reaction mixture included Tris 50 mM (pH=7.3), 10 mM MgAc, ^32P[γ-ATP] (100 μM), 0.01% β-mercaptoethanol, and was incubated for 10 minutes at 30° C. Reactions were spotted on phosphocellulose paper (p81), washed with 100 mM phosphoric acid, and counted for radioactivity (as described in Eldar-Finkelman et al., 1996).

Cdc2 = molecular target: T1, Cdc2 (Homo sapiens, UniProt P06493); assay: Effect of L803 on Cdc2 activity (histone H1 substrate); type: biochemical; conditions: L803 200 μM
T1 construct: purchased New England BioLabs (Beverly, Mass.)
Method: The effect of L803 (200 μM) on other protein kinases was tested by incubating Cdc2 (1 unit) with a reaction mixture similar to that described hereinabove and containing histone H1 substrate (5 μg). The reactions were boiled with SDS sample buffer, separated on gel electrophoresis and autoradiographed.

[1] = Glucose tolerance test in fasted C57Bl/6J mice; type: in vivo; conditions: vs control peptide
Method: Glucose tolerance tests: Glucose tolerance tests were performed in overnight fasted C57Bl/6J mice (12 hours). L803-mts or LE803-mts were administrated intraperitoneally (i.p.) to mice (400 nmol peptide), glucose (1 gram/kg) was injected i.p. one hour thereafter and blood samples were collected from tail vein at various time points. Blood glucose levels were immediately measured by Sugar Accutrend Sensor,(Roche, Germany)).

mouse adipocytes = assay: Glucose uptake in isolated adipocytes; type: cell-based
Method: Glucose uptake in isolated adipocytes: Mice adipocytes were isolated from epididymal fat pad by digestion with 0.8 mg/ml collagenase (Worthington Biochemical) as described previously (Lawrence et al., 1977). Digested fat pads were passed through nylon mesh and cells were washed 3 times with Krebs-bicarbonate buffer (pH=7.4) containing 1% bovine serum albumin (Fraction V, Boehringer Mannheim, Germany), 10 mM HEPES (pH=7.3), 5 mM glucose and 200 nM adenosine. Cells were incubated with L803-mts or LE803-mts at indicated concentrations for 1 hour, followed by addition of 2-deoxy [^3H] glucose (0.5 μci/vial) for 10 minutes. The assay was terminated by centrifugation of cells through dinonylphthalate (ICN, USA). ^3H was thereafter quantitated by liquid scintillation analyzer (Packard). Nonspecific uptake of 2-deoxy-[^3H] glucose was determined by the addition of cytochalasin B (50 μM) 30 minutes prior to the addition of radioactive material.
In another set of experiments, adipocytes were treated with various concentrations of L803-mts 1 hour before addition of sub-optimal concentration of insulin (5 nM). Glucose uptake was determined as described above.

β-catenin = β-catenin levels in mouse hippocampus extracts (Western blot); type: in vivo
Method: (§1) Forced Swimming Test (FST): C57BL/6J mice were housed in individual cages with free access to water in a temperature-controlled facility with a 12 hours light/dark cycle. Animals at age 14-16 weeks were used, and each experimental group consisted of randomly chosen 10-20 mice. At day one, mice were subjected to pre-FST (see below). At day two, mice were anesthetized with halothane (inhalation) and were unilaterally intracerebroventricularly injected (i.c.v., 1 μl of 25 mM stock solution) with L803-mts or a scrambled control peptide (cpL803-mts). Animals were subjected to FST once 1, 3, and 12 hours after reagents were administrated. The FST procedure used was similar to that initially described by Porsolt et al. (1977). Briefly, animals were placed at day one in a large cylinder (30 cm×45 cm) of 25° C. water for a 15-minutes period. At day two (24 hours later), treated mice were placed in the cylinder of water for a 6-minutes period. The duration of immobility was monitored during the last 4 minutes of the 6-minute test. Immobility period was defined as the time spent by the animal floating in the water without struggling and making only those movements necessary to keep its head above the water. All testing took place between 11:00 and 15:00. After completion the FST, mice were scarified, and hippocampuses were removed, frozen in liquid nitrogen, and stored at −80° C. Animal care followed the institutional animal care and used committee.
Hippocampus extracts: Hippocampus tissue was homogenized with ice cold buffer H (50 mM β-glycerophosphate pH=7.3, 10% glycerol, 1 mM EGTA, 1 mM EDTA, 10 mM NaF, 5 mM NaPPi, 25 μg/ml leupeptin, 25 μg/ml aprotinin, 500 nM microcystine LR and 1% Triton X100). […] Equal amounts of proteins (30 μg) as determined by Bradford analysis (Bradford, […]) were boiled with Laemmli sample buffer and subjected to gel electrophoresis (10% polyacrylamide gel), transferred to nitrocellulose membranes, and immunoblotted with specific monoclonal antibodies for β-catenin (Transduction laboratories, USA).

glycogen synthase = assay: Glycogen synthase activity in HEK 293 cells; type: cell-based
From the text: Glycogen synthase activity in HEK 293 cells: To test the impact of the conjugates of the present invention in intact cells, the membrane preamble L803 inhibitor L803-mts (N-Myristol-GKEAPPAPPQS(p)P) (SEQ ID NO:16) and two similarly modified respective controls LE803-mts (N-Myristol-GKEAPPAPPQSEP) (SEQ ID NO:17) and LS803-mts (N-Myristol-GKEAPPAPPQSP) (SEQ ID NO:18), in which the phosphorylated serine was replaced with glutamic acid (that usually mimics a phosphorylated group) or a serine residue, respectively, were designed and synthesized.
HEK 293 cells were grown in 10 cm plates with Dulbecco's modified Eagle medium (DMEM) supplemented with 10% fetal calf serum (FCS). On the day of the experiment, cells were incubated with low glucose medium supplemented with 0.5% FCS for 1 hour, followed by the addition of the conjugate L803-mts or its respective controls LE803-mts and LS803-mts at various concentrations, for additional 2.5 hours. A vehicle control of DMSO (0.1% DMSO) was also tested. […] The reactions were then spotted on ET31 (Whatman) papers, washed with 66% ice-cold ethanol, and counted for radioactivity. Glycogen synthase assays were measured in the presence of 0.1 mM glucose-6-phosphate (G6P). […]

[2] = Forced swimming test (FST); type: in vivo, C57BL/6J mice; conditions: vs control-treated animals
Method: as §1

GSK-3 = molecular target: T2, GSK-3 (Oryctolagus cuniculus, UniProt G1T8E2); assay: In vitro test of peptides as GSK-3 substrates; type: biochemical, rabbit; conditions: S2(p) of p9CREB replaced
T2 construct: made in house
T2 sequence (G1T8E2 1-432): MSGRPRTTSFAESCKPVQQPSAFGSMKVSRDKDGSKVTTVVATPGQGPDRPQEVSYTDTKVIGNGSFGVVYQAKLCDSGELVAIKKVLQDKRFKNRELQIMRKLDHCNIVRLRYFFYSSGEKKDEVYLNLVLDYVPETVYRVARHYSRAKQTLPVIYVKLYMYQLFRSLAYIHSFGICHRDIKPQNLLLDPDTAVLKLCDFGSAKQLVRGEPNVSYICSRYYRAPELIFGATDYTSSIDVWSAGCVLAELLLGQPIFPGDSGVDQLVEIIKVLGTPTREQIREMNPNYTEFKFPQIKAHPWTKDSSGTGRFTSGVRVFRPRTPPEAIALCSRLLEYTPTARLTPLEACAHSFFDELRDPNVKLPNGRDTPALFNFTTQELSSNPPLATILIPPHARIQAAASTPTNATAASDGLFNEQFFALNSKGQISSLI

Sequence of GSK-3β (A0A5F9DUX8 1-420): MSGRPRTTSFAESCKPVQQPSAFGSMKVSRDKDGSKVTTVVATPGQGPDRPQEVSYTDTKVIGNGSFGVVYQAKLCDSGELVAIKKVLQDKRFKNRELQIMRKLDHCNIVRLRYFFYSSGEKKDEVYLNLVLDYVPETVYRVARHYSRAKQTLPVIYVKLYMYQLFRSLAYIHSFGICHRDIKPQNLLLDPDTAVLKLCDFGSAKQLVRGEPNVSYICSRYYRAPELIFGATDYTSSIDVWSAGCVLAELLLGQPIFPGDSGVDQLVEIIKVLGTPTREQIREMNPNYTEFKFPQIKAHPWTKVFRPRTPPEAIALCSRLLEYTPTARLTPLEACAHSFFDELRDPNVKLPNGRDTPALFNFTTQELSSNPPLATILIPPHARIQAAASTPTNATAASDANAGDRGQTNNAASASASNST
T1 sequence (P06493 whole entry): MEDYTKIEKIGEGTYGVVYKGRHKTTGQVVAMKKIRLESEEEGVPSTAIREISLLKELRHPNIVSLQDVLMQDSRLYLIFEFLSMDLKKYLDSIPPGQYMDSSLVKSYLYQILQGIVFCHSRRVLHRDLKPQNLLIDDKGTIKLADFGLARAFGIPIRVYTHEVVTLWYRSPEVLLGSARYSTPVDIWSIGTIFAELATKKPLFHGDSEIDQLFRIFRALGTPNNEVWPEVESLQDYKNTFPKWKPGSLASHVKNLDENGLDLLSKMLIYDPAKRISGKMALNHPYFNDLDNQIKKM
T1 sequence (P14635 whole entry partner): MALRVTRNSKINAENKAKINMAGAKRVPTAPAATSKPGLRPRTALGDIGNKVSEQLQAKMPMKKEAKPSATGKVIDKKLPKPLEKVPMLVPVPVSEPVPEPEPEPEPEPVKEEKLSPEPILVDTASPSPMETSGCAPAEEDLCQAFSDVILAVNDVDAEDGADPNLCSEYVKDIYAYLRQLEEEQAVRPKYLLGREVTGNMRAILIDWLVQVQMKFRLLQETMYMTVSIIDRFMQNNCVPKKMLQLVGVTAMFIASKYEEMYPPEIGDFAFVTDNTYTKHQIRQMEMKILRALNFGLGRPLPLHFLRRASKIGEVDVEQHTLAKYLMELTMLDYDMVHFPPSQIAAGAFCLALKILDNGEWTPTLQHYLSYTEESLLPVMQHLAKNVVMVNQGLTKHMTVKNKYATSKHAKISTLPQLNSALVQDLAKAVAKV

CC[C@H](C)[C@H](N)C(=O)N[C@@H](CC(C)C)C(=O)N[C@@H](C)C(=O)N[C@@H](CCCNC(=N)N)C(=O)N[C@@H](CCCNC(=N)N)C(=O)N1CCC[C@H]1C(=O)N[C@@H](COP(=O)(O)O)C(=O)N[C@@H](Cc1ccc(O)cc1)C(=O)N[C@@H](CCCNC(=N)N)C(=O)O [Peptide 6, ILARRPS(p)YR] (H-ILARRP[pS]YR-OH)
Inhibitor functionality (GSK-3β): * (weak inhibition activity (IC50 > 800 μM)) | GSK-3 inhibition (in words) (GSK-3β): eliminated the inhibitory capacity

C[C@H](NC(=O)[C@H](CCC(=O)O)NC(=O)[C@@H](N)CCCCN)C(=O)N1CCC[C@H]1C(=O)N1CCC[C@H]1C(=O)N[C@@H](C)C(=O)N1CCC[C@H]1C(=O)N1CCC[C@H]1C(=O)N[C@@H](CCC(N)=O)C(=O)N[C@@H](COP(=O)(O)O)C(=O)N1CCC[C@H]1C(=O)O [Peptide 9, KEAPPAPPQS(p)P] (H-KEAPPAPPQ[pS]P-OH; N-terminus and C-terminus assumed)
Inhibition of cdc2 (in words) (Cdc2): not inhibited

C[C@H](NC(=O)[C@@H]1CCCN1)C(=O)N1CCC[C@H]1C(=O)N1CCC[C@H]1C(=O)N[C@@H](CCC(N)=O)C(=O)N[C@@H](COP(=O)(O)O)C(=O)N1CCC[C@H]1C(=O)O [Peptide 12, PAPPQS(p)P] (H-PAPPQ[pS]P-OH)
Inhibitor functionality (GSK-3β): * (weak inhibition activity (IC50 > 800 μM))

CCCCCCCCCCCCCC(=O)NCC(=O)N[C@@H](CCCCN)C(=O)N[C@@H](CCC(=O)O)C(=O)N[C@@H](C)C(=O)N1CCC[C@H]1C(=O)N1CCC[C@H]1C(=O)N[C@@H](C)C(=O)N1CCC[C@H]1C(=O)N1CCC[C@H]1C(=O)N[C@@H](CCC(N)=O)C(=O)N[C@@H](COP(=O)(O)O)C(=O)N1CCC[C@H]1C(=O)O [Peptide L803-mts, N-Myristol-GKEAPPAPPQS(p)P] (Myristoyl-GKEAPPAPPQ[pS]P-OH; C-terminus assumed)
Reduction in the blood glucose peak and in glucose levels 1 and 2 hours after glucose ([1]; 400 nmol i.p. one hour before glucose 1 gram/kg): 20% | Glucose tolerance (in words) ([1]; 400 nmol i.p.): better glucose tolerance | Effect on insulin-induced glucose uptake (in words) (mouse adipocytes; L803-mts 1-10 μM followed by sub-optimal insulin (5 nM)): additive effect | Increase of 2-deoxyglucose incorporation (mouse adipocytes; mouse adipocytes, no insulin, compared with cells treated with LE803-mts or LS803-mts): approximately 2.5 fold | Increase in β-catenin levels (β-catenin; 1 hour after i.c.v. L803-mts): 20% | Increase in β-catenin levels (β-catenin; 3 hours after i.c.v. L803-mts): 30% | Increase in β-catenin levels (β-catenin; 12 hours post administration): 50% | Concentrations inhibiting endogenous GSK-3 (glycogen synthase): 10 to 40 µM | Increase of glycogen synthase activity (glycogen synthase; 2.5 hours, compared with cells treated with LE803-mts or LS803-mts): 2.5 fold | Shortening of immobility time ([2]; FST 1 hour after i.c.v. injection): 37%±3.7% | Shortening of immobility time ([2]; FST 3 hours after i.c.v. injection): 44%±5.7% | Shortening of immobility time ([2]; FST 12 hours after i.c.v. injection): 16%±0.6%

ILSRPPEYR [Peptide 3]
Phosphorylation by GSK-3 (in words) (GSK-3): eliminated the capacity of GSK-3 to phosphorylate these peptides

ILSRPPY(p)YR (ILSRPP[pY]YR; also: phosphotyrosine, Y7 or Y8 (written PPY(p)YR)) [Peptide 4]
Phosphorylation by GSK-3 (in words) (GSK-3): eliminated the capacity of GSK-3 to phosphorylate these peptides

KEEPPAPPQEP [Peptide 11]
GSK-3 inhibition (in words) (GSK-3β): inactive inhibitors

KEEPPAPPQSP [Peptide 10]
GSK-3 inhibition (in words) (GSK-3β): inactive inhibitors

N-Myristol-GKEAPPAPPQSEP (Myristoyl-GKEAPPAPPQSEP) [LE803-mts, control conjugate, phosphorylated serine replaced with glutamic acid, reference compound]
GSK-3 inhibition (in words) (GSK-3β): do not inhibit

N-Myristol-GKEAPPAPPQSP (Myristoyl-GKEAPPAPPQSP) [LS803-mts, control conjugate, phosphorylated serine replaced with serine, reference compound]
GSK-3 inhibition (in words) (GSK-3β): do not inhibit

insulin [reference compound]
Maximum stimulation of glucose uptake by insulin (mouse adipocytes; mouse adipocytes, insulin 10 nM, data not shown): 3 fold

From US7446092B2, “Glycogen synthase kinase-3 inhibitors” (Tel Aviv University Future Technology Development L.P., priority 2002, dated 2008)
